Data on 1 compound can be found in patent publication US7799830B2, “Cinnamic acid dimers, their preparation and the use thereof for treating neurodegenerative disease” (Korea Institute of Science and Technology, priority 2002, dated 2010).

The test system of series [1] is mice administered with beta-amyloid. Put plainly: passive avoidance test (learning and memory-retention ability of mice). In kind it is in vivo. As to conditions: mice given compound and beta-amyloid (1-42); 24 h after training; maximum 300 seconds; average of 10 mice; FIG. 1. The procedure: Four groups of 10 mice aged 4-5 weeks, weighing 20-25 g were used in the experiment. Each sample was administered with 1% DMSO and 1% CMC using a Sonde once a day (samples: A—physiological salin solution; B—beta-amyloid; C—cinnamic acid dimer (example 1) and beta-amyloid). After injecting […] of each sample to the cerebral ventricle 3 consecutive days, passive avoidance test was conducted on the first and second day for following the last injection. All data was attained by the average of 10 mice.
In order to examine the learning and memory-retention ability of a mouse, a passive avoidance test was carried out in accordance with the method described in Song et al, J. Neurochem., 1998, 71, 875. A passive avoidance chamber equipped with a light room and a dark room was prepared, wherein the floor of the dark room was designed to deliver an electrical shock to the test animal. First, a mouse was put in the light room and, upon entering the dark room, an electrical shock of 0.25 mA was given to the animal for 1 second. […] Then, the time it took for the mouse to enter the dark room was measured as a passive avoidance time. The maximum restriction time was set at 300 seconds, i.e., in cases where the mouse took more than 300 seconds to enter the dark room, the passive avoidance time was determined to be 300 seconds.

The subject of a further series is Spraque-Dawley rats. Put plainly: oral toxicity test of cinnamic acid dimers. It counts as in vivo. How it is done: Twenty female and twenty male Spraque-Dawley rats aged 4 weeks were divided into four groups including 5 female and 5 male rats, after being raised in a vivarium of a temperature of 22±3° C., a relative humidity of 50±10%, an illumination of 150-300 Lux for 1 week.
The cinnamic acid dimers prepared in Example 1 were dissolved in corn oil, and the rats of the 4 groups were orally administered with the solution at a dose of 300, 1,000, 3,000 and 10,000 mg/kg once. […] In addition, the rats were killed on the seventh day after administration, dissected, and internal organs were examined with the unaided eye. Daily weight change was measured from the administration day and thus the weight decrease of animals attributed to cinnamic acid dimers was observed.

`COc1cc(C=CC(=O)O)ccc1OCCOc1ccc(C=CC(=O)O)cc1OC` [Example 1, 1,2-di[2-methoxy-4-(2-carboxylvinyl)]phenoxyethane]: the “step-through latency (passive avoidance time) compared with mice administered with beta-amyloid only” value in series [1] is on record as “significantly higher”. The “pathological changes of internal organs at dissection” value with Spraque-Dawley rats (group administered with 5,000 mg/kg or less, seventh day after administration, unaided eye) is on record as “No pathological changes were seen with the naked eye”. Also, in the series with Spraque-Dawley rats (single oral dose in corn oil, observed for 7 days, both males and females), the LD50 is recorded as 5,000 mg/kg.
